From patent US6462037B1, “1,4-benzodiazepin-2-ones useful as HIV reverse transcriptase inhibitors” (Bristol-Myers Squibb Pharma Company, priority 1999, dated 2002)

SMILES | melting point
CCCCN1CC(=O)Nc2ccc(Cl)cc2C1C(F)(F)F (stereo not shown) [compound 100, 7-Chloro-4-butyl-1,5-dihydro-5-(trifluoromethyl)-1,4-benzodiazepin-2-one] | 89 to 92 °C
CC(C)=CCN1CC(=O)Nc2ccc(Cl)cc2C1C(F)(F)F (stereo not shown) [compound 101, 7-Chloro-4-(3-methyl-2-butenyl)-1,5-dihydro-5-(trifluoromethyl)-1,4-benzodiazepin-2-one] | 120 to 125 °C
O=C1CN(Cc2ccccn2)C(C(F)(F)F)c2cc(Cl)ccc2N1 (stereo not shown) [compound 102, 7-Chloro-4-(2-pyridylmethyl)-1,5-dihydro-5-(trifluoromethyl)-1,4-benzodiazepin-2-one] | 184 to 187 °C
Cc1ncc(CN2CC(=O)Nc3ccc(Cl)cc3C2C(F)(F)F)s1 (stereo not shown) [compound 103, 7-Chloro-4-(2-methyl-5-thiazolylmethyl)-1,5-dihydro-5-(trifluoromethyl)-1,4-benzodiazepin-2-one] | 196 to 220 °C
Cc1ccc(CN2CC(=O)Nc3ccc(Cl)cc3C2C(F)(F)F)nc1 (stereo not shown) [compound 104, 7-Chloro-4-(5-methyl-2-pyridylmethyl)-1,5-dihydro-5-(trifluoromethyl)-1,4-benzodiazepin-2-one] | 200 to 205 °C
O=C1CN(Cc2cccc(Cl)n2)C(C(F)(F)F)c2cc(Cl)ccc2N1 (stereo not shown) [compound 105, 7-Chloro-4-(6-chloro-2-pyridylmethyl)-1,5-dihydro-5-(trifluoromethyl)-1,4-benzodiazepin-2-one] | 184 to 186 °C
CCCN1CC(=O)Nc2ccc(Cl)cc2C1C(F)(F)F (stereo not shown) [compound 106, 7-Chloro-4-propyl-1,5-dihydro-5-(trifluoromethyl)-1,4-benzodiazepin-2-one] | 123 to 124 °C
CCCCCCN1CC(=O)Nc2ccc(Cl)cc2C1C(F)(F)F (stereo not shown) [compound 107, 7-Chloro-4-hexyl-1,5-dihydro-5-(trifluoromethyl)-1,4-benzodiazepin-2-one] | 87 to 88 °C
CCCCCN1CC(=O)Nc2ccc(Cl)cc2C1C(F)(F)F (stereo not shown) [compound 108, 7-Chloro-4-pentyl-1,5-dihydro-5-(trifluoromethyl)-1,4-benzodiazepin-2-one] | 114 to 115 °C
O=C1CN(CCCc2ccccc2)C(C(F)(F)F)c2cc(Cl)ccc2N1 (stereo not shown) [compound 109, 7-Chloro-4-(3-phenylpropyl)-1,5-dihydro-5-(trifluoromethyl)-1,4-benzodiazepin-2-one] | 89 to 91 °C
O=C1CN(Cc2ccccc2)C(C(F)(F)F)c2cc(Cl)ccc2N1 (stereo not shown) [compound 110, 7-Chloro-4-benzyl-1,5-dihydro-5-(trifluoromethyl)-1,4-benzodiazepin-2-one] | 142 to 143 °C
CCCCCN1CC(=O)Nc2ccc(Cl)cc2C1C(F)(F)F (stereo not shown) [compound 111, 7-Chloro-4-pentyl-1,5-dihydro-5-(trifluoromethyl)-1,4-benzodiazepin-2-one] | 94 to 96 °C
Cc1ccccc1CN1CC(=O)Nc2ccc(Cl)cc2C1C(F)(F)F (stereo not shown) [compound 113, 7-Chloro-4-(2-methylbenzyl)-1,5-dihydro-5-(trifluoromethyl)-1,4-benzodiazepin-2-one] | 197 to 198 °C
O=C1CN(Cc2ccccc2Br)C(C(F)(F)F)c2cc(Cl)ccc2N1 (stereo not shown) [compound 114, 7-Chloro-4-(2-bromobenzyl)-1,5-dihydro-5-(trifluoromethyl)-1,4-benzodiazepin-2-one] | 161 to 162 °C
O=C1CN(Cc2c(F)cccc2Cl)C(C(F)(F)F)c2cc(Cl)ccc2N1 (stereo not shown) [compound 115, 7-Chloro-4-(2-chloro-6-fluorobenzyl)-1,5-dihydro-5-(trifluoromethyl)-1,4-benzodiazepin-2-one] | 171 to 172 °C
N#Cc1ccccc1CN1CC(=O)Nc2ccc(Cl)cc2C1C(F)(F)F (stereo not shown) [compound 116, 7-Chloro-4-(2-cyanobenzyl)-1,5-dihydro-5-(trifluoromethyl)-1,4-benzodiazepin-2-one] | 184 to 185 °C
O=C1CN(Cc2c(F)cccc2F)C(C(F)(F)F)c2cc(Cl)ccc2N1 (stereo not shown) [compound 117, 7-Chloro-4-(2,6-difluorobenzyl)-1,5-dihydro-5-(trifluoromethyl)-1,4-benzodiazepin-2-one] | 173 to 174 °C
COc1cccc(CN2CC(=O)Nc3ccc(Cl)cc3C2C(F)(F)F)c1 (stereo not shown) [compound 118, 7-Chloro-4-(3-methoxybenzyl)-1,5-dihydro-5-(trifluoromethyl)-1,4-benzodiazepin-2-one] | 171 to 172 °C
N#Cc1cccc(CN2CC(=O)Nc3ccc(Cl)cc3C2C(F)(F)F)c1 (stereo not shown) [compound 120, 7-Chloro-4-(3-cyanobenzyl)-1,5-dihydro-5-(trifluoromethyl)-1,4-benzodiazepin-2-one] | 241 to 242 °C
COc1ccccc1CN1CC(=O)Nc2ccc(Cl)cc2C1C(F)(F)F (stereo not shown) [compound 121, 7-Chloro-4-(2-methoxybenzyl)-1,5-dihydro-5-(trifluoromethyl)-1,4-benzodiazepin-2-one] | 145 to 146 °C

SMILES | melting point
O=C1CN(Cc2cccs2)C(C(F)(F)F)c2cc(Cl)ccc2N1 (stereo not shown) [compound 122, 7-Chloro-4-(2-thienylmethyl)-1,5-dihydro-5-(trifluoromethyl)-1,4-benzodiazepin-2-one] | 105 to 107 °C
O=C1CN(Cc2ccsc2)C(C(F)(F)F)c2cc(Cl)ccc2N1 (stereo not shown) [compound 123, 7-Chloro-4-(3-thienylmethyl)-1,5-dihydro-5-(trifluoromethyl)-1,4-benzodiazepin-2-one] | 148 to 150 °C
O=C1CN(Cc2ccco2)C(C(F)(F)F)c2cc(Cl)ccc2N1 (stereo not shown) [compound 124, 7-Chloro-4-(2-furanylmethyl)-1,5-dihydro-5-(trifluoromethyl)-1,4-benzodiazepin-2-one] | 143 to 145 °C
CCC(C)CCN1CC(=O)Nc2ccc(Cl)cc2C1C(F)(F)F (stereo not shown) [compound 125, 7-Chloro-4-(3-methylpentyl)-1,5-dihydro-5-(trifluoromethyl)-1,4-benzodiazepin-2-one] | 66 to 67 °C
COc1cccnc1CN1CC(=O)Nc2ccc(Cl)cc2C1C(F)(F)F (stereo not shown) [compound 126, 7-Chloro-4-(3-methoxy-2-pyridylmethyl)-1,5-dihydro-5-(trifluoromethyl)-1,4-benzodiazepin-2-one] | 146 to 148 °C
O=C1CN(CC#CC2CC2)C(C(F)(F)F)c2cc(Cl)ccc2N1 (stereo not shown) [compound 127, 7-Chloro-4-(3-cyclopropyl-2-propynyl)-1,5-dihydro-5-(trifluoromethyl)-1,4-benzodiazepin-2-one] | 121 to 123 °C
CCCCC1(C(F)(F)F)N=CC(=O)Nc2ccc(Cl)cc21 (stereo not shown) [compound 128, 7-Chloro-5-butyl-1,5-dihydro-5-(trifluoromethyl)-1,4-benzodiazepin-2-one] | 121 to 123 °C
CCCC#CCN1CC(=O)Nc2ccc(Cl)cc2C1C(F)(F)F (stereo not shown) [compound 129, 7-Chloro-4-(2-hexynyl)-1,5-dihydro-5-(trifluoromethyl)-1,4-benzodiazepin-2-one] | 96 to 98 °C
CCC(C)CCN1CC(=O)Nc2ccc(Cl)cc2C1C(F)(F)F (stereo not shown) [compound 131, 7-Chloro-4-(3-methylpentyl)-1,5-dihydro-5-(trifluoromethyl)-1,4-benzodiazepin-2-one] | 113 to 116 °C
COc1cccc(F)c1CN1CC(=O)Nc2ccc(F)c(F)c2C1C(F)(F)F (stereo not shown) [compound 132, 6,7-Difluoro-4-(2-fluoro-6-methoxybenzyl)-1,5-dihydro-5-(trifluoromethyl)-1,4-benzodiazepin-2-one] | 168 to 170 °C
CC(C)C#CC1(C(F)(F)F)c2c(ccc(F)c2F)NC(=O)CN1O (stereo not shown) [compound 133, 6,7-Difluoro-4-hydroxy-5-(3-methyl-1-butynyl)-1,5-dihydro-5-(trifluoromethyl)-1,4-benzodiazepin-2-one] | 174 to 176 °C
CC(C)C#CC1(C(F)(F)F)N=CC(=O)Nc2ccc(Cl)cc21 (stereo not shown) [compound 134, 7-Chloro-5-(3-methyl-1-butynyl)-1,5-dihydro-5-(trifluoromethyl)-1,4-benzodiazepin-2-one] | 185 to 187 °C
O=C1C=NC(C#Cc2cccs2)(C(F)(F)F)c2cc(Cl)ccc2N1 (stereo not shown) [compound 135, 7-Chloro-5-(2-thienylethynyl)-1,5-dihydro-5-(trifluoromethyl)-1,4-benzodiazepin-2-one] | 196 to 198 °C
CCCCN1CC(=O)Nc2ccc(Cl)cc2C1(C#CC(C)C)C(F)(F)F (stereo not shown) [compound 136, 7-Chloro-4-butyl-5-(3-methyl-1-butynyl)-1,5-dihydro-5-(trifluoromethyl)-1,4-benzodiazepin-2-one] | 123 to 125 °C
O=C1CN(Cc2ccccc2F)C(C(F)(F)F)c2cc(Cl)ccc2N1 (stereo not shown) [compound 137, 7-Chloro-4-(2-fluorobenzyl)-1,5-dihydro-5-(trifluoromethyl)-1,4-benzodiazepin-2-one] | 170 to 171 °C
O=C1CN(CCc2ccccc2Cl)C(C(F)(F)F)c2cc(Cl)ccc2N1 (stereo not shown) [compound 138, 7-Chloro-4-(2-(2-chlorophenyl)ethyl)-1,5-dihydro-5-(trifluoromethyl)-1,4-benzodiazepin-2-one] | 161 to 162 °C
O=C1CN(C(=O)c2ccccc2)C(C(F)(F)F)c2cc(Cl)ccc2N1 (stereo not shown) [compound 139, 7-Chloro-4-benzoyl-1,5-dihydro-5-(trifluoromethyl)-1,4-benzodiazepin-2-one] | 257 to 258 °C
O=C1CN(CCc2ccccc2I)C(C(F)(F)F)c2cc(Cl)ccc2N1 (stereo not shown) [compound 140, 7-Chloro-4-(2-(2-iodophenyl)ethyl)-1,5-dihydro-5-(trifluoromethyl)-1,4-benzodiazepin-2-one] | 172 to 173 °C
O=C1CN(CCc2cccc(Cl)c2)C(C(F)(F)F)c2cc(Cl)ccc2N1 (stereo not shown) [compound 141, 7-Chloro-4-(2-(3-chlorophenyl)ethyl)-1,5-dihydro-5-(trifluoromethyl)-1,4-benzodiazepin-2-one] | 208 to 209 °C
O=C1CN(Cc2cccc(F)c2)C(C(F)(F)F)c2cc(Cl)ccc2N1 (stereo not shown) [compound 142, 7-Chloro-4-(3-fluorobenzyl)-1,5-dihydro-5-(trifluoromethyl)-1,4-benzodiazepin-2-one] | 181 to 182 °C
